{
  "source": "patent US20250049737A1",
  "about": "“Lauflumide and derivatives thereof for treating chronic fatigue syndrome and myalgic encephalomyelitis/chronic fatigue syndrome (ME/CFS)” (NLS Pharmaceutics AG, priority 2021, published 2025)",
  "tested_on": "Rat model of severe fatigue",
  "test": "Rat model of severe fatigue (sleep deprivation): recording of circadian locomotor activity",
  "assay_type": "in vivo, Rats, Sprague-Dawley",
  "conditions": "for Period after administration during which the distance travelled was dramatically increased: 2-h period analysis; for Distance travelled during the 12-h dark phase / Total distance travelled during the full 24-h period / Difference of distance travelled between the dark phase and the light phase / Distance travelled during the 12-h light phase: days 1, 2 and 3",
  "protocol": "In the following example, Lauflumide is also called NLS-4.\nAnimals are individually housed in transparent polycarbonate cages (1354G Eurostandard Type IV cage, Tecniplast, Italy, 595×380×200 mm, floor area=1820 cm^2) filled with water (23±1° C.) to a height of 1.5 cm. A platform (5 cm height, 6.5 cm diameter) was located at the center of the cage. Animals can stay on the platform in order to stay dry but falls from it when it falls in deep sleep. […] During this period, animals were placed in a modified light/dark cycle with variable durations of the light and dark periods which change every day. This procedure is intended to disrupt the circadian rhythm.\nThe Sham group was housed in normal condition for the same period under a 12/12 h light/dark cycle.\nAfter the end of the fatigue period, animals were placed in transparent polycarbonate cages (Type E, Iffa Credo, France, 450×300×200 mm, floor area=1032 cm^2), under a 12 h/12 h cycle. Cages were covered with a stainless steel grid in which food and a bottle are placed. A stainless steel removable divider separated food and water. The cages were placed in infrared photobeam detection systems (Acti-track, LSI Leticca, Panlab) allowing to record continuously the distance travelled in the cage. Locomotor activity was recorded continuously for 3 days. The test started at the beginning of the dark phase of the light/dark cycle.\nSeventy-six animals were subjected to the fatigue procedure and to the tests as described above. Twelve animals (Sham group) were housed in standard condition.\nAfter the end of the Fatigue procedure, animals were divided into 10 groups which received before tests (total: 3 administrations) a per-os (p.o., oral gavage) administration of: • Sham (no fatigue) group (N=12): Vehicle. • Control group (N=11): Vehicle. • Modafinil 32 (N=10): modafinil (32 mg/kg). • Modafinil 64 (N=10): modafinil (64 mg/kg). • Modafinil 128 (N=5): modafinil (128 mg/kg). • NLS-4 16 (N=5): NLS-4 (16 mg/kg). • NLS-4 32 (N=10): NLS-4 (32 mg/kg). • NLS-4 64 (N=10): NLS-4 (64 mg/kg). • NLS-4 128 (N=10): NLS-4 (128 mg/kg). • NLS-4 256 (N=5): NLS-4 (256 mg/kg).\nRead-out: distance travelled during 24-h periods, 12-h dark and light periods and during 2-h periods.\nData are expressed as mean and standard error of mean (SEM).\nStatistical analyses: Student's t test, repeated measure ANOVA.\nA difference is considered statistically significant at p≤0.05.",
  "key": {"[1]": {"conditions": "16 mg/kg p.o., vs. Control (fatigue) group"}, "[2]": {"conditions": "16 mg/kg p.o., vs. Modafinil 32 group (32 mg/kg)"}, "[3]": {"conditions": "16 mg/kg p.o., vs. Modafinil 64 group (64 mg/kg)"}, "[4]": {"conditions": "16 mg/kg p.o., vs. Sham (no fatigue) group, listed as NLS-4"}, "[5]": {"conditions": "32 mg/kg p.o., vs. Control (fatigue) group"}, "[6]": {"conditions": "32 mg/kg p.o., vs. Sham (no fatigue) group"}, "[7]": {"conditions": "64 mg/kg p.o., vs. Control (fatigue) group"}, "[8]": {"conditions": "64 mg/kg p.o., vs. Sham (no fatigue) group"}, "[9]": {"conditions": "128 mg/kg p.o., vs. Control (fatigue) group"}, "[10]": {"conditions": "128 mg/kg p.o., vs. Sham (no fatigue) group"}, "[11]": {"conditions": "256 mg/kg p.o., vs. Control (fatigue) group"}, "[12]": {"conditions": "256 mg/kg p.o., vs. Sham (no fatigue) group"}},
  "note": "Entries after “also recorded” stand apart in the source; their conditions may differ.",
  "data": [
    {"smiles": "NC(=O)C[S@@+]([O-])C(c1ccc(F)cc1)c1ccc(F)cc1", "note": "[Lauflumide, 2-[(R)-((bis(4-fluorophenyl)methane)sulfinyl)]acetamide]", "values": [
      {"measurement": "Dose reducing the impairment of circadian rhythm, relative to modafinil", "setting": "16 mg/kg NLS-4 vs. 64 mg/kg modafinil", "result": "four times lower"},
      {"measurement": "Increase in locomotor activity compared with modafinil (32 mg/kg)", "setting": "16 mg/kg p.o.", "result": "significantly higher"},
      {"measurement": "Increase in locomotor activity compared with modafinil (64 mg/kg)", "setting": "16 mg/kg p.o.", "result": "of the same magnitude"},
      {"measurement": "Motor activity during the first 2-h periods following the dosing", "setting": "16 mg/kg p.o.", "result": "increased"},
      {"measurement": "Period after administration during which the distance travelled was dramatically increased", "setting": "16 mg/kg p.o.", "result": 2, "unit": "h"},
      {"measurement": "Distance travelled during the 12-h dark phase", "setting": "[1]", "result": "higher"},
      {"measurement": "Total distance travelled during the full 24-h period", "setting": "[1]", "result": "higher"},
      {"measurement": "Difference of distance travelled between the dark phase and the light phase", "setting": "16 mg/kg p.o., vs. Control (fatigue) group, listed as NLS-4", "result": "higher or tended to be higher; also recorded: increased"},
      {"measurement": "Difference of distance travelled between the dark phase and the light phase", "setting": "[2]", "result": "higher than the Modafinil 32 group on days 2 and 3 only"},
      {"measurement": "Distance travelled during the 12-h light phase", "setting": "[2]", "result": "higher than the Modafinil 32 group during the dark period on day 3 only and during the light period on day 1 only"},
      {"measurement": "Total distance travelled during the full 24-h period", "setting": "[2]", "result": "higher than the Modafinil 32 group on day 3 only"},
      {"measurement": "Difference of distance travelled between the dark phase and the light phase", "setting": "[3]", "result": "not significantly different"},
      {"measurement": "Distance travelled during the 12-h dark phase", "setting": "[3]", "result": "not significantly different"},
      {"measurement": "Distance travelled during the 12-h light phase", "setting": "[3]", "result": "not significantly different"},
      {"measurement": "Total distance travelled during the full 24-h period", "setting": "[3]", "result": "not significantly different"},
      {"measurement": "Total distance travelled during the full 24-h period", "setting": "16 mg/kg p.o., vs. Sham (no fatigue) group", "result": "not significantly different"},
      {"measurement": "Difference of distance travelled between the dark phase and the light phase", "setting": "[4]", "result": "increased the distance travelled in comparison with the Sham group during day 3 only; also recorded: higher than the Sham group on day 3 only"},
      {"measurement": "Distance travelled during the 12-h dark phase", "setting": "[4]", "result": "increased the distance travelled in comparison with the Sham group during the light phase on day 1 and during the dark phase on day 3; also recorded: higher than the Sham group during the dark period on day 3 only"},
      {"measurement": "Distance travelled during the 12-h light phase", "setting": "[4]", "result": "increased the distance travelled in comparison with the Sham group during the light phase on day 1 and during the dark phase on day 3; also recorded: higher than the Control group during the light periods on day 1 only"},
      {"measurement": "Period after administration during which the distance travelled was dramatically increased", "setting": "32 mg/kg p.o.", "result": 8, "unit": "h"},
      {"measurement": "Distance travelled during the 12-h dark phase", "setting": "[5]", "result": "higher"},
      {"measurement": "Distance travelled during the 12-h light phase", "setting": "[5]", "result": "not significantly different"},
      {"measurement": "Total distance travelled during the full 24-h period", "setting": "[5]", "result": "higher"},
      {"measurement": "Difference of distance travelled between the dark phase and the light phase", "setting": "32 mg/kg p.o., vs. Control (fatigue) group, listed as NLS-4", "result": "higher or tended to be higher; also recorded: increased"},
      {"measurement": "Difference of distance travelled between the dark phase and the light phase", "setting": "[6]", "result": "increased the distance travelled in comparison with the Sham group during day 3 only"},
      {"measurement": "Distance travelled during the 12-h dark phase", "setting": "[6]", "result": "increased the distance travelled in comparison with the Sham group during the light phase on days 1, 2 and 3, and during the dark phase on days 2 and 3"},
      {"measurement": "Distance travelled during the 12-h light phase", "setting": "[6]", "result": "increased the distance travelled in comparison with the Sham group during the light phase on days 1, 2 and 3, and during the dark phase on days 2 and 3"},
      {"measurement": "Total distance travelled during the full 24-h period", "setting": "[6]", "result": "increased the distance travelled in comparison with the Sham group during days 1, 2 and 3"},
      {"measurement": "Distance travelled during the 12-h dark phase", "setting": "[7]", "result": "higher"},
      {"measurement": "Distance travelled during the 12-h light phase", "setting": "[7]", "result": "higher for the NLS-4 64 group than for the Control group during the dark phase on days 1, 2 and 3 and during the light phase on day 3 only"},
      {"measurement": "Total distance travelled during the full 24-h period", "setting": "[7]", "result": "higher"},
      {"measurement": "Difference of distance travelled between the dark phase and the light phase", "setting": "64 mg/kg p.o., vs. Control (fatigue) group, listed as NLS-4", "result": "higher or tended to be higher; also recorded: increased"},
      {"measurement": "Distance travelled during the 12-h dark phase", "setting": "[8]", "result": "increased the distance travelled in comparison with the Sham group during both the dark and light phase on days 1, 2 and 3"},
      {"measurement": "Distance travelled during the 12-h light phase", "setting": "[8]", "result": "increased the distance travelled in comparison with the Sham group during both the dark and light phase on days 1, 2 and 3"},
      {"measurement": "Total distance travelled during the full 24-h period", "setting": "[8]", "result": "increased the distance travelled in comparison with the Sham group during days 1, 2 and 3"},
      {"measurement": "Distance travelled during the 12-h dark phase", "setting": "[9]", "result": "higher"},
      {"measurement": "Distance travelled during the 12-h light phase", "setting": "[9]", "result": "higher"},
      {"measurement": "Total distance travelled during the full 24-h period", "setting": "[9]", "result": "higher"},
      {"measurement": "Difference of distance travelled between the dark phase and the light phase", "setting": "128 mg/kg p.o., vs. Control (fatigue) group, listed as NLS-4", "result": "higher or tended to be higher; also recorded: increased"},
      {"measurement": "Distance travelled during the 12-h dark phase", "setting": "[10]", "result": "increased the distance travelled in comparison with the Sham group during both the dark and light phase on days 1, 2 and 3"},
      {"measurement": "Distance travelled during the 12-h light phase", "setting": "[10]", "result": "increased the distance travelled in comparison with the Sham group during both the dark and light phase on days 1, 2 and 3"},
      {"measurement": "Total distance travelled during the full 24-h period", "setting": "[10]", "result": "increased the distance travelled in comparison with the Sham group during days 1, 2 and 3"},
      {"measurement": "Distance travelled during the 12-h dark phase", "setting": "[11]", "result": "higher"},
      {"measurement": "Distance travelled during the 12-h light phase", "setting": "[11]", "result": "higher"},
      {"measurement": "Total distance travelled during the full 24-h period", "setting": "[11]", "result": "higher"},
      {"measurement": "Difference of distance travelled between the dark phase and the light phase", "setting": "256 mg/kg p.o., vs. Control (fatigue) group, listed as NLS-4", "result": "higher or tended to be higher; also recorded: increased"},
      {"measurement": "Difference of distance travelled between the dark phase and the light phase", "setting": "[12]", "result": "increased the distance travelled in comparison with the Sham group during day 3 only"},
      {"measurement": "Distance travelled during the 12-h dark phase", "setting": "[12]", "result": "increased the distance travelled in comparison with the Sham group during both the dark and light phase on days 1, 2 and 3"},
      {"measurement": "Distance travelled during the 12-h light phase", "setting": "[12]", "result": "increased the distance travelled in comparison with the Sham group during both the dark and light phase on days 1, 2 and 3"},
      {"measurement": "Total distance travelled during the full 24-h period", "setting": "[12]", "result": "increased the distance travelled in comparison with the Sham group during days 1, 2 and 3"},
      {"measurement": "Distance travelled during the dark phase (2-h period analysis), dose relation", "setting": "16-256 mg/kg p.o.", "result": "dose-dependently increased"},
      {"measurement": "Period after administration during which the distance travelled was dramatically increased", "setting": "64-256 mg/kg p.o.", "result": 10, "unit": "h"}
    ]}
  ]
}
